Consider 11 compounds from patent US5942527A, “Hydrazones, hydrazines, semicarbazones and thiosemicarbazones derived from pyridyl ketones as anticonvulsant drugs and excitatory amino acid antagonists” (K & K Biosciences, Inc., priority 1997, dated 1999).

For test [1], the system named is maximal electroshock seizures. Kind of test: Maximal electroshock seizure (MES) test, rat, p.o. Format: in vivo, rat (Sprague-Dawley). The conditions noted are these: for Class in the MES Test: Table 7, titled MES Test, Rat; for responders at 30 mg/kg: several time points over a 4 hour period, read-out: Percent Protection at 30 mg/kg, in the MES test. The text has this: The hydrazones, hydrazines and semicarbazones derived from pyridyl ketones and the resulting orally effective anticonvulsant compositions of this invention are useful in the treatment of convulsive disorders. […] A series of hydrazones, hydrazines and semicarbazones derived from pyridyl ketones of this invention has been evaluated for anticonvulsant activity by the intraperitoneal (i.p.) and by the oral (p.o.) route using two standard seizure models in the mouse and in the rat, the maximal electroshock seizure (MES) test and the subcutaneous pentylenetetrazole (Metrazole) seizure threshold (scMet) test. […] In addition, the compounds are evaluated in a new model, the threshold tonic extension (TTE) model. […] Thus active compounds that may be missed in the MES and […] the mouse, i.p., can be detected in the TTE test. The Maximal Electroshock Seizure Test (MES): Maximal electroshock seizures are elicited with a 60 Hz alternating current of 50 mA intensity in mice and about 150 mA intensity in rats (5-7 times that necessary to elicit minimal electroshock seizures), delivered for 0.2 sec via corneal electrodes. A drop of 0.9% saline is instilled in the eye prior to application of the electrodes in order to […]. Abolition of the hind limb tonic extension component of the seizure is defined as protection and results are expressed as number of animals protected/number of animals tested. […] This species will be the subject of the complete anticonvulsant quantification test evaluation as described above, but after oral (gavage) administration of the candidate compound.

Test [2] deals with maximal electroshock seizures. Kind of test: Maximal electroshock seizure (MES) test, mouse, i.p. Format: in vivo, mouse (male Carworth Farms #1). The conditions noted are these: mouse, 30, 100 and 300 mg/kg. An excerpt: The hydrazones, hydrazines and semicarbazones derived from pyridyl ketones and the resulting orally effective anticonvulsant compositions of this invention are useful in the treatment of convulsive disorders. […] A series of hydrazones, hydrazines and semicarbazones derived from pyridyl ketones of this invention has been evaluated for anticonvulsant activity by the intraperitoneal (i.p.) and by the oral (p.o.) route using two standard seizure models in the mouse and in the rat, the maximal electroshock seizure (MES) test and the subcutaneous pentylenetetrazole (Metrazole) seizure threshold (scMet) test. […] In addition, the compounds are evaluated in a new model, the threshold tonic extension (TTE) model. […] Thus active compounds that may be missed in the MES and […] the mouse, i.p., can be detected in the TTE test. Based on the screening results, the compounds are placed in one of three categories. […] Class II compounds show anticonvulsant activity at doses greater than 100 mg/kg or show activity at 100 mg/kg which is not reinforced by similar activity at 300 mg/kg. […] The Class I compounds are those which are most promising as anticonvulsants. […] In mice. i.p.: All compounds are emulsified in 0.5% methylcellulose. The solvent has been tested for anticonvulsant and toxic effects and found to introduce no significant bias into the testing of anticonvulsant activity. The compounds are administered intraperitoneally in a volume of 0.01 ml/gm to male Carworth Farms #1 mice weighing about 20 gm. All compounds are tested at least at three dose levels (30, 100 and 300 mg/kg) at 30 minutes and 4 hours after their administration. The Maximal Electroshock Seizure Test (MES): Maximal electroshock seizures are elicited with a 60 Hz alternating current of 50 mA intensity in mice and about 150 mA intensity in rats (5-7 times that necessary to elicit minimal electroshock seizures), delivered for 0.2 sec via corneal electrodes. A drop of 0.9% saline is instilled in the eye prior to application of the electrodes in order to […]. Abolition of the hind limb tonic extension component of the seizure is defined as protection and results are expressed as number of animals protected/number of animals tested. Anticonvulsant Quantification in Mice, i.p.: The ED50 values are determined in the MES, scMet and rotorod ataxia test.

Structures can show the parent of a compound that is named as a salt.

Turning to `CC(Nc1cccc(Cl)c1)c1cccnc1` (stereo not drawn) [AAP 3-Pyridyl CH3 3-Cl, reference compound], the “Class in the MES Test” value in test [1] was “II (show anticonvulsant activity at doses greater than 100 mg/kg or show activity at 100 mg/kg which is not reinforced by similar activity at 300 mg/kg)”.

Consider `CC(Nc1ccc(Cl)cc1)c1cccnc1` (stereo not drawn) [AAP 3-Pyridyl CH3 4-Cl, reference compound], for which the “protection at 50 mg/kg, MES Test” value in test [1] (rat, 50 mg/kg, Table 7) is on record as 0-75%.

As for `CC(Nc1ccc(Cl)c(Cl)c1)c1ccncc1` (stereo not drawn) [AAP 4-Pyridyl CH3 3,4-diCl, reference compound], in test [1] (po, rat, Table 7, read-out: Anticonvulsant Efficacy (ED50, mg/kg) in the MES Test), the ED50 was 29.7 mg/kg.

For the compound `Clc1ccc(NC(c2ccccc2)c2ccncc2)cc1` (stereo not drawn) [AAP 4-Pyridyl Ph 4-Cl, reference compound], the “Class in the MES Test” value in test [1] was “III (Those failing to demonstrate anticonvulsant activity at doses up to 300 mg/kg are considered inactive)”.

For `CC(=NNc1ccc(Cl)cc1)c1ccncc1` [Compound 2, Methyl 4-pyridyl ketone 4-chlorophenyl hydrazone], the responders at 30 mg/kg in test [1] (po, rat) fell in the range of 50 to 75%. Also, in test [2], the “ASP Group Classification, MES Test” value is “I (They demonstrate anticonvulsant activity in either the MES test or the scMet test, or both at doses of 100 mg/kg or 30 mg/kg without signs of neurological deficit and thus have an estimated protective index of greater than 1)”.

As to `CC(=NNc1cccc(Cl)c1)c1cccnc1` [Compound 6, Methyl 3-pyridyl ketone 3-chlorophenylhydrazone], in test [1], the “Class in the MES Test” value was “I (They demonstrate anticonvulsant activity in either the MES test or the scMet test, or both at doses of 100 mg/kg or 30 mg/kg without signs of neurological deficit and thus have an estimated protective index of greater than 1)”. For the same compound, in test [2], the “ASP Group Classification, MES Test” value was “I (They demonstrate anticonvulsant activity in either the MES test or the scMet test, or both at doses of 100 mg/kg or 30 mg/kg without signs of neurological deficit and thus have an estimated protective index of greater than 1)”.

As for `CCC(=NNc1ccc(Cl)cc1)c1ccncc1` [Compound 8, Ethyl 4-pyridyl ketone 4-chlorophenylhydrazone], the “ASP Group Classification, MES Test” value in test [2] is “I (They demonstrate anticonvulsant activity in either the MES test or the scMet test, or both at doses of 100 mg/kg or 30 mg/kg without signs of neurological deficit and thus have an estimated protective index of greater than 1)”.

With `Clc1ccc(NN=C(c2ccccc2)c2ccncc2)cc1` [Compound 10, Phenyl 4-pyridyl ketone 4-chlorophenylhydrazone], the “Class in the MES Test” value in test [1] is “I (They demonstrate anticonvulsant activity in either the MES test or the scMet test, or both at doses of 100 mg/kg or 30 mg/kg without signs of neurological deficit and thus have an estimated protective index of greater than 1)”. Moreover, the “ASP Group Classification, MES Test” value in test [2] was “I (They demonstrate anticonvulsant activity in either the MES test or the scMet test, or both at doses of 100 mg/kg or 30 mg/kg without signs of neurological deficit and thus have an estimated protective index of greater than 1)”.

For `CC(NNc1ccc(Cl)c(Cl)c1)c1cccnc1` (stereo not drawn) [Compound 12, 1-(3,4-dichlorophenyl)-2-[1-(3-pyridyl)]ethylhydrazine dihydrochloride], the responders at 30 mg/kg in test [1] (po, rat) fell in the range of 25 to 75%. Besides, the “ASP Group Classification, MES Test” value in test [2] is “I (They demonstrate anticonvulsant activity in either the MES test or the scMet test, or both at doses of 100 mg/kg or 30 mg/kg without signs of neurological deficit and thus have an estimated protective index of greater than 1)”.

On to `CC(=NNC(N)=O)c1ccncc1` [Compound 13, Methyl 4-pyridyl ketone semicarbazone], for which, in test [2], the “ASP Group Classification, MES Test” value was “I (They demonstrate anticonvulsant activity in either the MES test or the scMet test, or both at doses of 100 mg/kg or 30 mg/kg without signs of neurological deficit and thus have an estimated protective index of greater than 1)”.

Regarding `CC(=NNC(N)=O)c1cccnc1` [Compound 14, Methyl 3-pyridyl ketone semicarbazone], the “ASP Group Classification, MES Test” value in test [2] was “II (show anticonvulsant activity at doses greater than 100 mg/kg or show activity at 100 mg/kg which is not reinforced by similar activity at 300 mg/kg)”.
